{
  "source": "patent US4665068A",
  "about": "“Novel 9-chloro-1,5-benzothiazepine derivatives and their pharmaceutical use” (Tanabe Seiyaku Co., Ltd., priority 1984, dated 1987)",
  "key": {"[1]": {"test_system": "coronary blood flow of the isolated heart of guinea pig", "assay": "Coronary vasodilating activity, Langendorff's method, isolated heart of guinea pig", "conditions": "for Coronary vasodilating activity: isolated guinea pig heart", "excerpt": "(§1) On the other hand, when the coronary vasodilating activity is estimated by the Langendorff method using isolated hearts of guinea pigs, said activity of (+)-cis-2-(4-methoxyphenyl)-3-acetoxy-5-[2-(dimethylamino)ethyl]-9-chloro- 2,3-dihydro-1,5-benzothiazepin-4(5H)-one hydrochloride is about 10 times stronger than that of papaverine.\n(Coronary vasodilating activity)\nLangendorff's method was used for testing the effect on the coronary blood flow of the isolated heart of guinea pig (about 280 g). The isolated heart was perfused with Locke-Ringer solution containing 2% of defibrinated rabbit blood, which had been saturated with a mixed gas of 95% O2 and 5% CO2 (30° C.). Perfusion pressure was kept at 40 cm H2 O. A solution of a test compound in an aqueous 5% glucose solution was injected into the perfusing solution at a volume of 0.1 ml per heart. The outflow of the perfusate was measured by means of a drop counter.\nThe coronary vasodilating activity of the test compound was expressed as \"±\" if the increase in coronary blood flow is less than 0.5 ml/minute at a dose of 100 μg/heart; \"+\" if the increase is not less than 0.5 ml/minute at a dose of 100 μg/heart; \"++\" if the increase is not less than 0.5 ml/minute at a dose of 30 μg/heart; and \"+++\" if the increase is not less than 0.5 ml/minute at a dose of not more than 10 μg/heart."}, "[2]": {"test_system": "spontaneously hypertensive rats (SHR)", "assay": "Hypotensive activity, systolic blood pressure of SHR after oral dosing (tail plethysmographic technique)", "assay_type": "in vivo, rat (spontaneously hypertensive", "conditions": "30 mg/kg oral", "method": "A test compound (dose: 30 mg/kg) dissolved or suspended in water was administered orally to spontaneously hypertensive rats (SHR) (one group: 3 rats) fasted overnight. […] The hypotensive activity of the test compound was estimated at one or 4 hours after dosing and expressed as \"-\" if the decrease in blood pressure is less than 10 mm Hg; \"+\" if the decrease is not less than 10 mm Hg but less than 20 mm Hg; \"++\" if the decrease is not less than 20 mm Hg but less than 40 mm Hg; \"+++\" if the decrease is not less than 40 mm Hg but less than 60 mm Hg; or \"++++\" if the decrease is not less than 60 mm Hg."}, "[3]": {"test_system": "vertebral artery blood flow", "assay": "Cerebral vasodilating activity, blood flow in vertebral artery of anesthetized dogs", "assay_type": "in vivo, dog (male)", "conditions": "for increase in vertebral artery blood flow / cerebral vasodilating activity, times stronger than the 7-chloro derivative: intraarterial; for cerebral vasodilating activity, times stronger than the 7-chloro derivative: vs (±)-cis-3-acetoxy-7-chloro derivative hydrochloride; for Cerebral vasodilating activity (potency ratio): potency ratio to papaverine from dose-response curves, injected into vertebral artery", "experimental": "as §1\n(Cerebral vasodilating activity)\nMale dogs weighing 10 to 20 kg were anesthetized with sodium pentobarbital (30 mg/kg, intravenous injection). The blood flow in vertebral artery was measured continuously by means of an electromagnetic flowmeter under artificial respiration. A test compound dissolved in an aqueous 5% glucose solution was injected into vertebral artery. The cerebral vasodilating activity of the test compound was estimated in terms of the potency ratio of said compound to papaverine, which was calculated from the dose-response curves thereof."}, "[4]": {"assay": "Acute toxicity, oral, mice", "conditions": "mouse, in vivo", "experimental": "For example, the acute toxicity (LD50) of (+)-cis-2-(4-methoxypnenyl)-3-acetoxy-5-[2-(dimethylamino)ethyl]-9-chloro- 2,3-dihydro-1,5-benzothiazepin-4(5H)-one hydrochloride when orally administered to mice is about 1,000 mg/kg."}, "platelet aggregation": {"test_system": "platelet aggregation", "assay": "Platelet aggregation-inhibiting activity (collagen, platelet-rich plasma, Born's method)", "assay_type": "cell-based, rat (male Sprague-Dawley)", "parameters": "key to the marks not given beside the values", "conditions": "final concentration 100 μg/ml, rat PRP, 37° C.", "excerpt": "(Platelet aggregation-inhibiting activity)\nBlood was collected from the abdominal aorta of male Sprague-Dawley rats which were anesthetized with ether. Nine volumes of rat blood were mixed with one volume of an aqueous trisodium citrate solution, and the mixture was centrifuged to give platelet-rich plasma (\"PRP\") as the supernatant solution. The bottom layer was further centrifuged to give platelet-poor plasma (\"PPP\") as the supernatant solution. Platelet counts were adjusted to 0.8-1×10^6 /mm^3 for PRP by dilution with PPP. After a mixture of 200 μl of the diluted PRP and 25 μl of a test compound solution (final concentration: 100 μg/ml) was stirred for 2 minutes at 37° C., 25 μl of a collagen solution [Biochim. Biophys."}},
  "note": "Where a name gives a salt, the structure may show the parent alone.",
  "data": [
    {"smiles": "COc1ccc(Cc2nccc3cc(OC)c(OC)cc23)cc1OC", "note": "[Papaverine, reference compound]", "values": [
      {"measurement": "Coronary vasodilating activity", "setting": "[1]", "result": "+ (increase is not less than 0.5 ml/minute at a dose of 100 μg/heart)"}
    ]},
    {"smiles": "COc1ccc([C@@H]2Sc3c(Cl)cccc3N(CCN(C)C)C(=O)[C@@H]2OC(C)=O)cc1.Cl", "note": "(single isomer, unassigned) [(+)-cis-2-(4-methoxyphenyl)-3-acetoxy-5-[2-(dimethylamino)ethyl]-9-chloro-2,3-dihydro-1,5-benzothiazepin-4(5H)-one hydrochloride]", "values": [
      {"measurement": "decrease in blood pressure, one hour after administration", "setting": "[2]; 1 hour", "result": "about 74 mm Hg"},
      {"measurement": "Hypotensive activity, 1 hr after dosing", "setting": "[2]", "result": "++++ (decrease is not less than 60 mm Hg)"},
      {"measurement": "decrease in blood pressure, 4 hours after administration", "setting": "[2]; 4 hours", "result": "~54", "unit": "mm Hg"},
      {"measurement": "Hypotensive activity, 4 hrs after dosing", "setting": "[2]", "result": "+++ (decrease is not less than 40 mm Hg but less than 60 mm Hg)"},
      {"measurement": "increase in vertebral artery blood flow", "setting": "[3]", "result": "remarkable increase in vertebral artery blood flow"},
      {"measurement": "cerebral vasodilating activity, times stronger than the 7-chloro derivative", "setting": "[3]", "result": "more than 3 times"},
      {"measurement": "Cerebral vasodilating activity (potency ratio)", "setting": "[3]", "result": 15},
      {"measurement": "Coronary vasodilating activity", "setting": "[1]", "result": "+++ (increase is not less than 0.5 ml/minute at a dose of not more than 10 μg/heart)"},
      {"measurement": "coronary vasodilating activity, times stronger than papaverine", "setting": "[1]; isolated guinea pig hearts, vs papaverine", "result": "about 10 times"},
      {"measurement": "LD50", "setting": "[4]", "result": "~1000", "unit": "mg/kg"}
    ]},
    {"smiles": "COc1ccc([C@@H]2Sc3ccc(Cl)cc3N(CCN(C)C)C(=O)[C@@H]2OC(C)=O)cc1.Cl", "note": "(racemic) [(±)-cis-2-(4-methoxyphenyl)-3-acetoxy-5-[2-(dimethylamino)ethyl]-7-chloro-2,3-dihydro-1,5-benzothiazepin-4(5H)-one hydrochloride, reference compound]", "values": [
      {"measurement": "Cerebral vasodilating activity (potency ratio)", "setting": "[3]", "result": 5}
    ]},
    {"smiles": "COc1ccc([C@@H]2Sc3c(Cl)cccc3N(CCN(C)C)C(=O)[C@@H]2OC(C)=O)cc1.Cl", "note": "(racemic) [(±)-cis-2-(4-methoxyphenyl)-3-acetoxy-5-[2-(dimethylamino)ethyl]-9-chloro-2,3-dihydro-1,5-benzothiazepin-4(5H)-one hydrochloride]", "values": [
      {"measurement": "Hypotensive activity, 1 hr after dosing", "setting": "[2]", "result": "+++ (decrease is not less than 40 mm Hg but less than 60 mm Hg)"},
      {"measurement": "Hypotensive activity, 4 hrs after dosing", "setting": "[2]", "result": "+++ (decrease is not less than 40 mm Hg but less than 60 mm Hg)"},
      {"measurement": "Coronary vasodilating activity", "setting": "[1]", "result": "+++ (increase is not less than 0.5 ml/minute at a dose of not more than 10 μg/heart)"},
      {"measurement": "Platelet aggregation-inhibiting activity", "setting": "platelet aggregation", "result": "++"}
    ]},
    {"smiles": "COc1ccc([C@@H]2Sc3ccc(Cl)cc3N(CCN(C)C)C(=O)[C@@H]2OC(C)=O)cc1", "note": "(relative stereo) [(+)-cis-2-(4-methoxyphenyl)-3-acetoxy-5-[2-(dimethylamino)ethyl]-7-chloro-2,3-dihydro-1,5-benzothiazepin-4(5H)--one hydrochloride, reference compound]", "values": [
      {"measurement": "Hypotensive activity, 1 hr after dosing", "setting": "[2]", "result": "++ (decrease is not less than 20 mm Hg but less than 40 mm Hg)"},
      {"measurement": "Hypotensive activity, 4 hrs after dosing", "setting": "[2]", "result": "+ (decrease is not less than 10 mm Hg but less than 20 mm Hg)"}
    ]},
    {"smiles": "COc1ccc([C@@H]2Sc3c(Cl)cccc3N(CCN(C)C)C(=O)[C@@H]2O)cc1.Cl", "note": "(racemic) [(±)-cis-2-(4-methoxyphenyl)-3-hydroxy-5-[2-(dimethylamino)ethyl]-9-chloro-2,3-dihydro-1,5-benzothiazepin-4(5H)-one hydrochloride]", "values": [
      {"measurement": "Coronary vasodilating activity", "setting": "[1]", "result": "+++ (increase is not less than 0.5 ml/minute at a dose of not more than 10 μg/heart)"},
      {"measurement": "Platelet aggregation-inhibiting activity", "setting": "platelet aggregation", "result": "++"}
    ]},
    {"smiles": "COc1ccc([C@@H]2Sc3c(Cl)cccc3N(CCN(C)C)C(=O)[C@@H]2O)cc1.[O-][Cl+3]([O-])([O-])O", "note": "(single isomer, unassigned) [(+)-cis-2-(4-methoxyphenyl)-3-hydroxy-5-[2-(dimethylamino)ethyl]-9-chloro-2,3-dihydro-1,5-benzothiazepin-4(5H)-one perchlorate]", "values": [
      {"measurement": "Hypotensive activity, 1 hr after dosing", "setting": "[2]", "result": "+++ (decrease is not less than 40 mm Hg but less than 60 mm Hg)"},
      {"measurement": "Hypotensive activity, 4 hrs after dosing", "setting": "[2]", "result": "++ (decrease is not less than 20 mm Hg but less than 40 mm Hg)"},
      {"measurement": "increase in vertebral artery blood flow", "setting": "[3]", "result": "remarkable increase in vertebral artery blood flow"},
      {"measurement": "cerebral vasodilating activity, times stronger than the 7-chloro derivative", "setting": "[3]", "result": "more than 3 times"},
      {"measurement": "Cerebral vasodilating activity (potency ratio)", "setting": "[3]", "result": 22},
      {"measurement": "Coronary vasodilating activity", "setting": "[1]", "result": "+++ (increase is not less than 0.5 ml/minute at a dose of not more than 10 μg/heart)"}
    ]}
  ]
}
